Laboratory results reported in US20100204182A1, “ECTONUCLEOTIDASE INHIBITORS” (RHEINISCHE FRIEDRICH-WILHELMS-UNIVERSITAT BONN, priority 2006, published 2010).

Legend:
hP2Y12 = hP2Y12 (Homo sapiens, UniProt Q9H244); test: Inhibition of [3H]PSB-0413 binding at hP2Y12; conditions: mean ± SEM, read-out: hP2Y12 % Inhibition of [^3H]PSB-0413 Binding at 10 μM, n = 3
Method: (§1) In table 2 inhibition data of selected examples at human P2Y receptor subtypes were collected. It can be seen that no compound was identified that inhibited P2Y receptors at high concentrations of 100 μM and 10 μM, respectively.

human NTPDase1 = target: T1, human NTPDase1 (Homo sapiens, UniProt P49961); test: NTPDase inhibition assay by capillary electrophoresis (CE), NTPDase1; assay type: biochemical; conditions: ATP 320 μM; for Ki: CE method, Km 17 μM, read-out: NTPDase1 Ki [μM] ± SEM
T1 sequence (P49961 1-510): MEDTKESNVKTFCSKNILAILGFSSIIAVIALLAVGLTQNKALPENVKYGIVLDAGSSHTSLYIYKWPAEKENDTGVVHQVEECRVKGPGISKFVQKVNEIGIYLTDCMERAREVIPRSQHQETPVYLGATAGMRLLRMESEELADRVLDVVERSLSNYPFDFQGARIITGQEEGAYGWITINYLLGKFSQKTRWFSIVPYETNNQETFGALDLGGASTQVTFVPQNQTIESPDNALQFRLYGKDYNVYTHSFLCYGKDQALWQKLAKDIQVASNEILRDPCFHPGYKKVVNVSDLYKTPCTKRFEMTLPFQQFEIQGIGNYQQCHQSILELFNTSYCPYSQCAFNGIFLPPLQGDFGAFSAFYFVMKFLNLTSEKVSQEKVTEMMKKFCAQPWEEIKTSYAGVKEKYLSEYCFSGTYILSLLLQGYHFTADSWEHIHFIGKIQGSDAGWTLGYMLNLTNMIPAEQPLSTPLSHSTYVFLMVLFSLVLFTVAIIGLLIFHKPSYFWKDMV
How it was run: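 Recombinant or native human NTPDase was run with 320 μM ATP in Hepes buffer pH 7.4 (NaCl, KCl, MgCl2, CaCl2) at 37° C for 15 min, stopped by heating at 99° C. Products were quantified by capillary electrophoresis (UV 210 nm, UMP internal standard). IC50 from 6-8 concentrations was converted to Ki by Cheng-Prusoff.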

hP2Y4 = hP2Y4 (Homo sapiens, UniProt P51582); test: Inhibition of UTP binding at hP2Y4; conditions: read-out: hP2Y4 % inhibition of UTP binding at 100 μM, n = 3, mean ± SEM
hP2Y4, sequence (P51582 whole entry): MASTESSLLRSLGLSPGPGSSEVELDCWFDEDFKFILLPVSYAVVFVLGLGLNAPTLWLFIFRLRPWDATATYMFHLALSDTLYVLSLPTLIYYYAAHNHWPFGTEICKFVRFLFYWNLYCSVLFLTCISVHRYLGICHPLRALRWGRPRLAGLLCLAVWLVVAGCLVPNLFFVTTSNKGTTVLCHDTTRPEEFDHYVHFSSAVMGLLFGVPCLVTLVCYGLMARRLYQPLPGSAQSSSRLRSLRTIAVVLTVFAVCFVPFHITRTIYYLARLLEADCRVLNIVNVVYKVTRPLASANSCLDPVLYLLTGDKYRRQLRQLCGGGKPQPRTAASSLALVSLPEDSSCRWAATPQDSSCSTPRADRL
Method: as §1

hP2Y12, sequence (Q9H244 whole entry): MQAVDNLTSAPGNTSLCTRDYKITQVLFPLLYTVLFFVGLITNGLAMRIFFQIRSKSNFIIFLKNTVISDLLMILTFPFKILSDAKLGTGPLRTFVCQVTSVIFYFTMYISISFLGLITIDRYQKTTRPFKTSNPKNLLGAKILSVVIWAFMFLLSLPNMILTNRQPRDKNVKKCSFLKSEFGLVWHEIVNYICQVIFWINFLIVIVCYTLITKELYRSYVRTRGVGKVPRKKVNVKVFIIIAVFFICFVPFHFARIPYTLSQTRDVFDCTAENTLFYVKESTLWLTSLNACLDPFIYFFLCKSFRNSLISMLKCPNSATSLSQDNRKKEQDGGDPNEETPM

SMILES | inhibition at 10 µM (hP2Y12) [%] | inhibition at 1000 µM (human NTPDase1; 1 mM compound) [%] | Ki (human NTPDase1) [µM] | inhibition at 100 µM (hP2Y4) [%]
CCOP(=O)(Cc1ccc(NC(=O)CNC(=O)[C@H]2O[C@@H](n3ccc(=O)[nH]c3=O)C(O)C2O)cc1)OCC (stereo in doubt) [Compound 2, 4-[2-((2S,3R,4S,5R)-5-(2,4-Dioxo-3,4-dihydropyrimidin-1(2H)-yl)-3,4-dihydroxy-tetrahydrofurane-2-carboxamido)ethaneamido]benzylphosphonic acid diethylester] | 2 ± 6 | 50 | > 50 | –
CCOP(=O)(Cc1ccc(NC(=O)CCNC(=O)[C@H]2O[C@@H](n3ccc(=O)[nH]c3=O)C(O)C2O)cc1)OCC (stereo in doubt) [Compound 3, 4-[3-((2S,3R,4S,5R)-5-(2,4-Dioxo-3,4-dihydropyrimidin-1(2H)-yl)-3,4-di-hydroxy-tetrahydrofurane-2-carboxamido)propaneamido]benzylphosphonic acid diethylester] | 9 ± 4 | – | 55.2 ± 2.6 | 14 ± 6
